Test results as given in US8946234B2, “Halogen-substituted compounds” (Bayer CropScience AG, priority 2008, dated 2015).

Assay: physchem
Type: physicochemical
Details: for chromatographic logP: HPLC phase inversion (reversed-phase) C18 column, HPLC method a), eluent acetonitrile/water with formic acid, read-out: logP
In short: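 Reversed-phase C18 HPLC (50×4.6 mm, 1.8 micron), 55 °C, 2.0 ml/min, acetonitrile/water with formic acid. Linear gradient 10% to 95% acetonitrile over 4.25 min, then 95% for 1.25 min. logP derived from retention per EEC Directive 79/831 Annex V.A8; MS detection.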

SMILES | logP | chromatographic logP
Cn1nc(C(F)F)c(C(F)(F)F)c1C(=O)Nc1ccc(Cl)c(C(=O)NC2CC2)c1 [Ik-231] | 2.46^a) | 
Cn1nc(C(F)F)c(C(F)(F)F)c1C(=O)Nc1ccc(Cl)c(C(=O)NCC=CCl)c1 [Ik-232] | 2.92^a) | 
Cn1nc(C(F)C2CC2)c(C(F)(F)F)c1C(=O)Nc1ccc(Cl)c(C(=O)NC2CC2)c1 (stereo not drawn) [Ik-233, N-[4-Chloro-3-(cyclopropylcarbamoyl)phenyl]-3-[cyclopropyl(fluoro)methyl]-1-methyl-4-(trifluoromethyl)-1H-pyrazole-5-carboxamide] |  | 2.76
Cn1nc(OC(F)F)cc1C(=O)Nc1ccc(Cl)c(C(=O)NC2CC2)c1 [Ik-234] | 2.17^a) | 
Cn1nc(C2CC2)c(Br)c1C(=O)Nc1ccc(Cl)c(C(=O)NC2CC2)c1 [Ik-235] | 2.60^a) | 
Cn1nc(OC(F)F)c(Br)c1C(=O)Nc1ccc(Cl)c(C(=O)NCC(F)(F)F)c1 [Ik-236] | 2.88^a) | 
Cn1nc(OC(F)F)c(Br)c1C(=O)Nc1ccc(Cl)c(C(=O)NC2CC2)c1 [Ik-237] | 2.51^a) | 
Cn1nc(OC(F)F)c(Cl)c1C(=O)Nc1ccc(Cl)c(C(=O)NC2CC2)c1 [Ik-238] | 2.52^a) | 
Cn1nc(OC(F)F)c(Cl)c1C(=O)Nc1ccc(Cl)c(C(=O)NCC(F)(F)F)c1 [Ik-239] | 2.89^a) | 
Cn1nc(OC(F)F)c(I)c1C(=O)Nc1ccc(Cl)c(C(=O)NC2CC2)c1 [Ik-240] | 2.54^a) | 
Cn1nc(OC(F)F)c(I)c1C(=O)Nc1ccc(Cl)c(C(=O)NCC(F)(F)F)c1 [Ik-241] | 2.92^a) | 
Cn1nc(OCC(F)(F)F)c(Cl)c1C(=O)Nc1ccc(Cl)c(C(=O)NC2CC2)c1 [Ik-242] | 2.89^a) | 
Cn1nc(OCC(F)(F)F)c(Cl)c1C(=O)Nc1ccc(Cl)c(C(=O)NCC(F)(F)F)c1 [Ik-243] | 3.27^a) | 
Cn1nc(OCC(F)(F)F)c(I)c1C(=O)Nc1ccc(Cl)c(C(=O)NCC(F)(F)F)c1 [Ik-244] | 3.24^a) | 
Cn1nc(OCC(F)(F)F)c(I)c1C(=O)Nc1ccc(Cl)c(C(=O)NC2CC2)c1 [Ik-245] | 2.85^a) | 
Cn1nc(OCC(F)(F)F)cc1C(=O)Nc1ccc(Cl)c(C(=O)NCC(F)(F)F)c1 [Ik-246] | 2.92^a) | 
Cn1nc(OCC(F)(F)F)cc1C(=O)Nc1ccc(Cl)c(C(=O)NC2CC2)c1 [Ik-247] | 2.55^a) | 
Cn1nc(-c2ccc(F)cc2)c(Br)c1C(=O)Nc1ccc(Cl)c(C(=O)NC2CC2)c1 [Ik-248] | 3.04^a) | 
Cn1nc(-c2ccc(C(F)(F)F)cc2)c(Br)c1C(=O)Nc1ccc(Cl)c(C(=O)NC2CC2)c1 [Ik-249] | 3.63^a) | 
Cn1nc(-c2ccc(Cl)cc2Cl)c(Br)c1C(=O)Nc1ccc(Cl)c(C(=O)NC2CC2)c1 [Ik-250] | 3.59^a) | 
Cn1nc(-c2ccc(OC(F)(F)F)cc2)c(Br)c1C(=O)Nc1ccc(Cl)c(C(=O)NC2CC2)c1 [Ik-251] | 3.76^a) | 

SMILES | logP | chromatographic logP
Cn1nc(-c2ccccc2Cl)c(Br)c1C(=O)Nc1ccc(Cl)c(C(=O)NCC(F)(F)F)c1 [Ik-252] | 3.41^a) | 
Cn1nc(-c2ccc(C(F)(F)F)cc2)c(Br)c1C(=O)Nc1ccc(Cl)c(C(=O)NCC(F)(F)F)c1 [Ik-253] | 3.99^a) | 
Cn1nc(-c2ccc(Cl)cc2Cl)c(Br)c1C(=O)Nc1ccc(Cl)c(C(=O)NCC(F)(F)F)c1 [Ik-254] | 4.04^a) | 
Cn1nc(-c2ccc(OC(F)(F)F)cc2)c(Br)c1C(=O)Nc1ccc(Cl)c(C(=O)NCC(F)(F)F)c1 [Ik-255] | 4.15^a) | 
Cn1nc(OCC(F)(F)F)c(Br)c1C(=O)Nc1ccc(Cl)c(C(=O)NC2CC2)c1 [Ik-256] | 2.87^a) | 
Cn1nc(OCC(F)(F)F)c(Br)c1C(=O)Nc1ccc(Cl)c(C(=O)NCC(F)(F)F)c1 [Ik-257] | 3.26^a) | 
Cn1nc(-c2cc(C(F)(F)F)cc(C(F)(F)F)c2)c(C(F)(F)F)c1C(=O)Nc1ccc(Cl)c(C(=O)NCC(F)(F)F)c1 [Ik-258] | 4.46^a) | 
Cn1nc(-c2cc(C(F)(F)F)cc(C(F)(F)F)c2)c(C(F)(F)F)c1C(=O)Nc1ccc(Cl)c(C(=O)NC2CC2)c1 [Ik-259] | 4.19^a) | 
Cn1nc(OCC(F)(F)F)c(F)c1C(=O)Nc1ccc(Cl)c(C(=O)NC2CC2)c1 [Ik-260] | 2.75^a) | 
Cn1nc(C2CC2)c(C(F)(F)F)c1C(=O)Nc1ccc(Cl)c(C(=O)NC2CC2)c1 [Ik-261] | 2.78^a) | 
C=CCc1c(C(F)(F)C(F)(F)F)nn(C)c1C(=O)Nc1ccc(Cl)c(C(=O)NC2CC2)c1 [Ik-262] | 3.37^a) | 
CCc1c(C(F)(F)C(F)(F)F)nn(C)c1C(=O)Nc1cccc(C(=O)NC2CC2)c1 [Ik-263] | 3.05^a) | 
Cn1nc(C(F)(F)OC(F)(F)C(F)(F)OC(F)(F)F)c(I)c1C(=O)Nc1ccc(Cl)c(C(=O)NC2CC2)c1 [Ik-264] | 3.66^a) | 
Cn1nc(C(F)(F)C(F)(F)C(F)(F)C(F)(F)F)c(I)c1C(=O)Nc1ccc(Cl)c(C(=O)NC2CC2)c1 [Ik-265] | 3.90^a) | 
Cn1nc(C(F)(F)C(F)(F)C(F)(F)C(F)(F)F)cc1C(=O)Nc1ccc(Cl)c(C(=O)NC2CC2)c1 [Ik-266] | 3.74^a) | 
CC(NC(=O)c1cc(NC(=O)c2c(I)c(C(F)(F)C(F)(F)C(F)(F)C(F)(F)F)nn2C)ccc1Cl)C1CC1 (stereo not drawn) [Ik-267] | 4.38^a) | 
Cn1nc(C(F)(F)C(F)(F)C(F)(F)C(F)(F)F)c(I)c1C(=O)Nc1ccc(Cl)c(C(=O)NC2CCC2)c1 [Ik-268] | 4.16^a) | 
Cn1nc(C(F)(F)C(F)(F)C(F)(F)C(F)(F)F)c(I)c1C(=O)Nc1ccc(Cl)c(C(=O)NCC=CCl)c1 [Ik-269] | 4.27^a) | 
Cn1nc(C(F)(F)C(F)(F)F)c(C(F)(F)F)c1C(=O)Nc1cc(C(=O)NC2CC2F)c(Cl)cn1 (stereo not drawn) [Ik-314] | 3.14^a) | 
C=CCNC(=O)c1cc(NC(=O)c2c(C(F)(F)F)c(C(F)(F)C(F)(F)F)nn2C)ncc1Br [Ik-315] | 3.42^a) | 
C=CCNC(=O)c1cc(NC(=O)c2c(C(F)(F)F)c(C(F)(F)C(F)(F)F)nn2C)ncc1Cl [Ik-316] | 3.38^a) | 

SMILES | logP | chromatographic logP
Cn1nc(C(F)(F)C(F)(F)F)c(C(F)(F)F)c1C(=O)Nc1cc(C(=O)NCC(F)(F)F)c(Cl)cn1 [Ik-317] | 3.61^a) | 
Cn1nc(C(F)(F)C(F)(F)F)c(C(F)(F)F)c1C(=O)Nc1cc(C(=O)NC2CC2)c(Cl)cn1 [Ik-318] | 3.24^a) | 
Cc1nc(C(F)(F)F)ccc1C(=O)Nc1ccc(Cl)c(C(=O)NC2CC2)c1 [Ir-2] | 2.27^a) | 
CC(C)NC(=O)c1cc(NC(=O)c2ccc(C(F)(F)F)nc2Cl)ccc1Cl [Ir-3] | 2.68^a) | 
Cc1nc(C(F)(F)F)ccc1C(=O)Nc1ccc(Cl)c(C(=O)NC(C)C)c1 [Ir-4] | 2.53^a) | 
CNC(=O)c1cc(NC(=O)c2ccc(C(F)(F)F)nc2C)ccc1Cl [Ir-5] | 1.97^a) | 
CNC(=O)c1cc(NC(=O)c2ccc(C(F)(F)F)nc2Cl)ccc1Cl [Ir-6] | 2.16^a) | 
C=CCNC(=O)c1cc(NC(=O)c2ccc(C(F)(F)F)nc2Cl)c(C)cc1Cl [Ir-7] | 2.68^a) | 
C=CCNC(=O)c1cc(NC(=O)c2ccc(C(F)(F)F)nc2C)c(C)cc1Cl [Ir-8] | 2.45^a) | 
O=C(NCC(F)(F)F)c1cc(NC(=O)c2ccc(C(F)(F)F)nc2Cl)ccc1Cl [Ir-9] | 2.82^a) | 
O=C(NCC=CCl)c1cc(NC(=O)c2ccc(C(F)(F)F)nc2Cl)ccc1Cl [Ir-10] | 2.86^a) | 
Cc1nc(C(F)(F)F)ccc1C(=O)Nc1ccc(Cl)c(C(=O)NCC(F)(F)F)c1 [Ir-11] | 2.67^a) | 
COC(=O)c1cc(NC(=O)c2c(C(F)(F)F)c(C(F)(F)C(F)(F)F)nn2C)ccc1Cl [Methyl 2-chloro-5-({[1-methyl-3-(pentafluoroethyl)-4-(trifluoromethyl)-1H-pyrazol-5-yl]carbonyl}amino)benzoate] |  | 4.05
COC(=O)c1[nH]nc(C(F)(F)C(F)(F)F)c1C(F)(F)F [Methyl 3-(pentafluoroethyl)-4-(trifluoromethyl)-1H-pyrazole-5-carboxylate] |  | 3.02
COC(=O)c1cc(N(C(=O)c2c(C(F)(F)F)c(C(F)(F)C(F)(F)F)nn2C)C(=O)c2c(C(F)(F)F)c(C(F)(F)C(F)(F)F)nn2C)ccc1Cl [Methyl 5-(bis{[1-methyl-3-(pentafluoroethyl)-4-(trifluoromethyl)-1H-pyrazol-5-yl]carbonyl}amino)-2-chlorobenzoate] |  | 5.85
Cn1nc(C(O)C2CC2)c(C(F)(F)F)c1C(=O)Nc1ccc(Cl)c(C(=O)NC2CC2)c1 (stereo not drawn) [N-[4-chloro-3-(cyclopropylcarbamoyl)phenyl]-3-[cyclopropyl(hydroxy)methyl]-1-methyl-4-(trifluoromethyl)-1H-pyrazole-5-carboxamide] |  | 2
CCOC(=O)c1cc(NC(=O)c2nc(C)nc(C(F)(F)C(F)(F)F)c2C(F)(F)F)ccc1Cl [ethyl 2-chloro-5-({[2-methyl-6-(pentafluoroethyl)-5-(trifluoromethyl)pyrimidin-4-yl]-carbonyl}amino)benzoate] |  | 4.55
COC(=O)c1c(Cl)cnc(N)c1Cl [methyl 2-amino-3,5-dichloroisonicotinate] |  | 1.75
COC(=O)c1cc(N)ncc1Cl [methyl 2-amino-5-chloroisonicotinate] |  | 1.3
COC(=O)c1cc(NC(=O)c2c(C(F)(F)F)c(C(F)(F)C(F)(F)F)nn2C)cnc1Cl [methyl 2-chloro-5-({[1-methyl-3-(pentafluoroethyl)-4-(trifluoromethyl)-1H-pyrazol-5-yl]carbonyl}amino)nicotinate] |  | 3.7
COC(=O)c1cc(NC(=O)c2c(C(F)(F)F)c(C(F)(F)C(F)(F)F)nn2C)ncc1Br [methyl 5-bromo-2-({[1-methyl-3-(pentafluoroethyl)-4-(trifluoromethyl)-1H-pyrazol-5-yl]carbonyl}amino)-isonicotinate] |  | 4.04
